Measurements as given in patent publication US20250281492A1, “NEW CRYSTALLINE FORMS OF SALT OF 7-CYCLOPENTYL-2-(5-PIPERAZIN-1-YL-PYRIDIN-2-YLAMINO)-7H-PYRROLO[2,3-D]PYRIMIDINE -6-CARBOXYLIC ACID DIMETHYLAMIDE” (priority 2019, published 2025).

How the values were obtained:
Type in all cases: physicochemical
[1] = DVS (dynamic vapor sorption) sorption/desorption isotherms; details: for Desorption / Sorption: DVS, 25 degrees Celsius; for XRPD after DVS: after DVS cycle at 25 degrees Celsius; for hygroscopicity classification: from DVS data at 25° C.
Description: Anhydrous modifications A and E of ribociclib succinate were submitted to DVS analysis. The results are reported in FIGS. 14 and 15 and in Table 12.

[2] = Conversion to dihydrate Modification HB (water activity, suspension equilibration)
[3] = Long term stability studies, exposure to high relative humidity; details: 75% RH at 40 or 50° C., less protective packaging material
[4] = Hydrate formation: exposure at ambient temperature at various relative humidity in a desiccator
Description: Aliquots from ribociclib succinate Modification A were exposed in a desiccator with saturated solution of inorganic salt or drying agent to provide a range of various relative humidities.

[5] = Thermogravimetry
[6] = relative humidity 10%, succinate
[7] = relative humidity 20%, succinate
[8] = relative humidity 30%, succinate
[9] = relative humidity 40%, succinate
[10] = relative humidity 50%, succinate
[11] = relative humidity 60%, succinate
[12] = relative humidity 70%, succinate
[13] = relative humidity 80%, succinate
[14] = relative humidity 90%, succinate
[15] = relative humidity 95%, succinate
[16] = heating rate 10 degrees Celsius per minute

Desorption ([1]; relative humidity 0%) [wt %]	Sorption ([1]; relative humidity 0%) [wt %]	Desorption [1, 6] [wt %]	Sorption [1, 6] [wt %]	Desorption ([1]; relative humidity 20%) [wt %]	Sorption [1, 7] [wt %]	Desorption ([1]; relative humidity 30%) [wt %]	Sorption [1, 8] [wt %]	Desorption ([1]; relative humidity 40%) [wt %]	Sorption [1, 9] [wt %]	Sorption [1, 10] [wt %]	Sorption [1, 11] [wt %]	Sorption [1, 12] [wt %]	Sorption [1, 13] [wt %]	Sorption [1, 14] [wt %]	Sorption [1, 15] [wt %]	XRPD after DVS [1]	hygroscopicity classification ([1]; succinate)	loss on drying ([5]; from 30 to 180° C.)	decomposition temperature [5, 16]	Compound	other results
0.0	0.0	0.1	0.1	0.1	0.1	0.1	0.2	0.1	0.2	0.2	0.2	0.3	0.3	0.5	0.7	No change	slightly hygroscopic	less than 0.05%	about 200 °C	CN(C)C(=O)c1cc2cnc(Nc3ccc(N4CCNCC4)cn3)nc2n1C1CCCC1.O=C(O)CCC(=O)O [Modification A, 7-Cyclopentyl-2-(5-piperazin-1-yl-pyridin-2-ylamino)-7H-pyrrolo[2,3-d]pyrimidine-6-carboxylic acid dimethylamide succinate, reference compound]	maximum mass change compared to the dry state ([1]; exposed to 92% HR., 25° C.): about 0.7%; water uptake in comparison to the dry state (0% RH) ([1]; exposed to 95% RH in DVS cycle at 25° C.): about 0.7%; water activity for conversion into dihydrate Modification HB ([2]; conversion observed in bulk at 40° C./75% RH): higher than 70 % relative humidity (RH); physical stability (XRPD) [3]: physically unstable; loss on drying by thermogravimetry ([4]; after 10 days at 92% RH, ambient temperature): 3.9%; physical stability (XRPD) ([4]; exposed to 92% RH at ambient temperature for 1 day, peaks assigned to Modification HA): some additional peaks at about 4.7, 6.4, 12.0 and 13.0 degree 2θ can be detected; conversion (XRPD) ([4]; exposed to 92% RH at ambient temperature for 10 days): complete conversion; physical stability (XRPD) ([4]; exposed up to 80% RH at ambient temperature for 1 day): physically stable; loss on drying by thermogravimetry ([4]; starting material before exposure): lower than 0.05%; behaviour at high relative humidity ([4]; sufficient amount of time at relative humidity close or higher than 92%): starts to deliquesce
0.0	0.0	0.0	0.0	0.1	0.0	0.1	0.1	0.1	0.1	0.1	0.1	0.1	0.1	0.1	0.1	No change	not hygroscopic	less than 0.05%	about 200 °C	CN(C)C(=O)c1cc2cnc(Nc3ccc(N4CCNCC4)cn3)nc2n1C1CCCC1.O=C(O)CCC(=O)O [Modification E, 7-Cyclopentyl-2-(5-piperazin-1-yl-pyridin-2-ylamino)-7H-pyrrolo[2,3-d]pyrimidine-6-carboxylic acid dimethylamide succinate]	max water uptake (mass change) ([1]; DVS cycle at 25° C.): 0.1%; water activity (aH2O) at which Modification HB is obtained ([2]; suspension equilibration at 25° C.): ≥ 0.68
–	–	–	–	–	–	–	–	–	–	–	–	–	–	–	–	–	–	–	–	CN(C)C(=O)c1cc2cnc(Nc3ccc(N4CCNCC4)cn3)nc2n1C1CCCC1 [Modification F]	loss on drying ([5]; from 30 to 140° C.): less than 0.0%
0.0	0.0	–	–	1.7	–	1.9	–	2.0	–	–	–	–	–	–	–	No change	–	–	about 200 °C	CN(C)C(=O)c1cc2cnc(Nc3ccc(N4CCNCC4)cn3)nc2n1C1CCCC1.O.O.O=C(O)CCC(=O)O [Modification HB]	Desorption ([1]; relative humidity 10%): 1.2 wt %; Sorption ([1]; relative humidity 10%): 0.8 wt %; Sorption ([1]; relative humidity 20%): 1.3 wt %; Sorption ([1]; relative humidity 30%): 1.7 wt %; Sorption ([1]; relative humidity 40%): 1.9 wt %; Sorption ([1]; relative humidity 50%): 2.1 wt %; Sorption ([1]; relative humidity 60%): 2.2 wt %; Sorption ([1]; relative humidity 70%): 2.3 wt %; Sorption ([1]; relative humidity 80%): 2.4 wt %; Sorption ([1]; relative humidity 90%): 2.5 wt %; Sorption ([1]; relative humidity 95%): 2.5 wt %; mass loss on loss of water ([5]; at about 120° C.): about 5.8%; temperature of loss of water [5, 16]: about 120 °C
